Data as given in US11840531B2, “CDK8/19 inhibitors” (JOINT STOCK COMPANY “BIOCAD”, priority 2018, dated 2023).

What was measured:
[1] = Stability of the compounds in human blood plasma; assay type: in vitro ADME; details: pooled human blood plasma, 10 μM, 4 hours at 37° C.
Method: To assess the blood plasma stability of the compounds, we used pooled human blood plasma taken from ten healthy donors. The initial candidate solution (10 mM in DMSO) was diluted with pooled blood plasma to a concentration of 10 μm (test solution). The test solution was incubated in a dry block thermostat for 4 hours at 37° C. HPLC with Agilent 1200 liquid chromatography system (Agilent, USA) was employed to determine peak areas of the compounds in test samples, said peak areas corresponding to the initial test time (prior to incubation) and the final test time (after incubation in a dry block thermostat for 4 hours at 37° C.), proteins were preliminarily precipitated with acetonitrile. Chromatographic analysis was performed in a gradient elution regime with a flow rate of 1 mL/min Substance amount in % in a sample after thermostatting was determined.
The stability of the compounds was estimated. The compounds described herein show at least 90% chemical stability, i.e. they are chemically stable in human blood plasma (Table 2).

[2] = Enzyme stability in human liver microsomes (Phase I); assay type: in vitro ADME; details: pH 7.4; 0.5 mg/mL pooled human liver microsomes, 10 μM compound, 37° C.
Method: Measuring of enzyme stability of the present compounds enabled estimation of their stability towards the action of Phase I biotransformation enzymes.
The rate of enzymatic decomposition of a compound was detected by incubating the reaction mixture in a dry block heater at 37° C.; the reaction mixture contained 0.5 mg/mL of pooled human liver microsomes (XenoTech, USA, cat #H6010), 10 μM of a compound, 2 mM β-nicotinamide adenine dinucleotide (Carbosynth, UK, cat #NN10871) and 4 mM of magnesium chloride in 0.1M sodium phosphate buffer (pH=7.4). The reaction was quenched with acetonitrile (100 μL of acetonitrile/100 μL of the reaction mixture). After quenching, the samples were centrifuged at 10000 rpm for 10 minutes. Supernatant fluid was tested by chromatographic technique using Agilent1200 (Agilent, USA). Chromatographic analysis was performed in a gradient elution regime with a flow rate of 1 mL/min. A graph of the logarithm of substance's peak area as a function of time was made. The dependent factor of the line corresponded to the elimination rate constant K based on which the drug's half-lif½e T and degradation rate CLint were calculated:
Based on the data obtained, candidates' enzyme stability in human liver microsomes was determined.

CDK8/Cyclin C = CDK8/Cyclin C (Homo sapiens (Human), UniProt P49336); assay: LanthaScreen binding to recombinant CDK8/Cyclin C; details: TR-FRET, Tracer 236 10 nM, CDK8/Cyclin C 5 nM
Chain of CDK8/Cyclin C (P49336 whole entry): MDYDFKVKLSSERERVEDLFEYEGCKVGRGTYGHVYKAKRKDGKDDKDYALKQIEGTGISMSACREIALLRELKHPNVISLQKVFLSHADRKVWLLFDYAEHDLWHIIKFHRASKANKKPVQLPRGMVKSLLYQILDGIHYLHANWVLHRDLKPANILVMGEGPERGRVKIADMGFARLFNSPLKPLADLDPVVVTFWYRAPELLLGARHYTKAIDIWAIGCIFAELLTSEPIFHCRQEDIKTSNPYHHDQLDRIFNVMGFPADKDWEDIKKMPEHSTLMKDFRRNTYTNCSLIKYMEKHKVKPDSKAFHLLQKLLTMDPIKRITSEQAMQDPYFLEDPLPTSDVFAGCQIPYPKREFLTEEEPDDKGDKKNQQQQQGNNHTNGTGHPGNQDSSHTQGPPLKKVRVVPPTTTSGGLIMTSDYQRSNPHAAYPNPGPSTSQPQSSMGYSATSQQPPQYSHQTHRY
Chain of CDK8/Cyclin C (P24863 whole entry partner): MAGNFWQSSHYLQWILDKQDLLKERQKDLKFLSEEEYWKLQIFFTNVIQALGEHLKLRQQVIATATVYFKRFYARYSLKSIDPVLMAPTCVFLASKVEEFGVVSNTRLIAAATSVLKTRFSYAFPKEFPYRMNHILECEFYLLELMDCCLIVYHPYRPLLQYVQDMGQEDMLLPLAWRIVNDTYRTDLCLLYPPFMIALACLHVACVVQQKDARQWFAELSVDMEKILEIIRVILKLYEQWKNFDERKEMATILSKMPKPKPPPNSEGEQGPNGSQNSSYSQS
Method: Capability of compounds of the present invention to bind to CDK8 protein was detected using LanthaScreen (ThermoFisher) assay. We detected FRET signal proportional to the amount of CDK8-bound fluorescently-labeled ligand (Tracer 236) that competes with inhibitor for ATP binding site. We carried out the measurements in a 15 μl reaction volume using a 384-well plate (Corning, #CLS4513). Enzyme CDK8/Cyclin C (ThermoFisher, #PR7261B) was mixed with antibodies Anti-His-tag-Biotin (ThermoFisher, #PV6090), Streptavidin-Eu (ThermoFisher, #PV6025), the resulting mixture was added to plate wells (5 MKπ/well). Final concentrations of substances were as follows: CDK8/Cyclin C—5 nM, Streptavidin-Eu—3 nM, Anti-His-tag-Biotin—3 nM. Staurosporine (S4400, Sigma) was used as a reference inhibitor, and 0.1% solution of dimethyl sulphoxide (DMSO) in reaction buffer was used as a blank, the reaction buffer comprised 250 mM HEPES (pH 7.5), 50 mM MgCl2, 5 mM EGTA, and 0.05% Brij-35.
The inhibitors and controls in question were added to corresponding wells (5 μl/well). The plate was incubated at room temperature for 20 minutes. After incubating, 5 μl/well of tracer solution Alexa Fluor-647 (Kinase Tracer 236, ThermoFisher, #PV5592)) was added to the wells. Final concentration of tracer was 10 nM. Reaction buffer, instead of tracer solution, was used as a negative control. The plate was incubated for 40 minutes at 25° C., TR-FRET signal was then measured according to the manufacturer's guidelines on SPARK20 plate reader (Tecan, Switzerland), and the value was converted to the amount of kinase-bound tracer. IC50 values were calculated using SparkControl Magellan 1.2 software (Tecan, Switzerland) approximating experimental points by four-parameter logistic model with the optimization by Levenberg-Marquardt (Table 5).

KG-1 cells = assay: Antiproliferative activity, KG-1 cells (AlamarBlue); assay type: cell-based; details: Homo sapiens, KG-1, 120 h, 120 h incubation
Method: Antiproliferative activity of CDK8 inhibitors according to the present invention was measured in a cell-based test on continuous cell cultures MV4-11 (biphenotypic myelomonocytic leukemia, ATCC® CRL-9591™), KG-1 (acute myeloid leukemia, ATCC® CCL-246™) using a vital stain AlamarBlue (ThermoFisher, #DAL1100). The cells were grown in RPMI-1640 (PanEco, #C330p) medium with addition of 10% FBS (Gibco, #16140-071); washed and resuspended in culture medium with 10% FBS (Gibco, #16140-071) in 96-well culture plates (Corning, #3599) with ≈10×10^3 cells in […] of medium per well. The compounds in question were dissolved in DMSO and diluted with a medium with 10% FBS (Gibco, #16140-071) to a final concentration ranging from 0 to 100 μM. […] of diluted compounds were then added to each well (final DMSO concentration was less than 1%) and incubated under 5% CO2 atmosphere at 37° C. for 120 h. After incubating, 15 μL/well of AlamarBlue (ThermoFisher, #DAL1100) reagent was added, contents of plates were mixed in an orbital shaker (Biosan, Latvia) and further incubated for 3-5 h at 37° C. under 5% CO2 atmosphere. Number of living cells was estimated using a microplate spectrophotometer (Tecan Infinite M200Pro, Switzerland) measuring fluorescent signal at the excitation wavelength (λEx) of 540 nm and emission wavelength (λEm) of 590 nm.
IC50 values were calculated using Magellan 7.2 software (Tecan, Switzerland) approximating experimental points by four-parameter logistic model with the optimization by Levenberg-Marquardt (Table 6).

[3] = General cytotoxicity on HepG2 cells; assay type: cell-based; details: human, 72 h incubation
Method: The CC50 values were determined in the test for General cytotoxicity On HepG2 cells (hepatocellular carcinoma, ATCC® HB-8065™). Cells per well were seeded in 96-well plates (Corning, #3599) at a concentration ≈20×10^3 cells in 100 μL of medium and incubated for 72 h with added compounds within the range of concentrations of 200 to 0.78 μM. Cell viability was assessed using the above method.

Chemical stability in human blood plasma 4 h, % [1]	microsomal CLint at 10 μM [2]	IC50 (CDK8/Cyclin C)	Structure (SMILES)	IC50 (KG-1 cells)	CC50 at 72 h [3]
91.2%	39.6 µL/min/mg	1.63 nM	COCCn1cc(-c2ccc(-c3cnc(N)c4ncc(C(=O)NCC5CC5)cc34)cc2)cn1 [Compound 3.45, 8-amino-N-(cyclopropylmethyl)-5-(4-(1-(2-methoxyethyl)-1H-pyrazole-4-yl)phenyl)-1,7-naphthyridine-3-carboxamide]	0.1 nM	17400 nM
98.4%	18 µL/min/mg	1.1 nM	COCCn1cc(-c2ccc(-c3cnc(N)c4ncc(C(=O)NC5CC5)cc34)cc2)cn1 [Compound 3.48]	2.7 nM	31800 nM
100.0%	7 µL/min/mg	0.96 nM	CN(C)C(=O)Cn1cc(-c2ccc(-c3cnc(N)c4ncc(C(=O)N5CCC5)cc34)cc2)cn1 [Compound 3.52, 2-(4-(4-(8-amino-3-(azetidine-1-carbonyl)-1,7-naphthyridine-5-yl)phenyl)-1H-pyrazole-1-yl)-N,N-dimethylacetamide]	1.2 nM	> 100000 nM
